The values that follow come from patent US5063208A, “Peptidyl aminodiol renin inhibitors” (Abbott Laboratories, priority 1990, dated 1991).

This assay deals with T1, human renal renin (Homo sapiens, UniProt P00797).
T1 construct: human renal renin, free from acid proteolytic activity; from tissue
T1 sequence (P00797 67-406): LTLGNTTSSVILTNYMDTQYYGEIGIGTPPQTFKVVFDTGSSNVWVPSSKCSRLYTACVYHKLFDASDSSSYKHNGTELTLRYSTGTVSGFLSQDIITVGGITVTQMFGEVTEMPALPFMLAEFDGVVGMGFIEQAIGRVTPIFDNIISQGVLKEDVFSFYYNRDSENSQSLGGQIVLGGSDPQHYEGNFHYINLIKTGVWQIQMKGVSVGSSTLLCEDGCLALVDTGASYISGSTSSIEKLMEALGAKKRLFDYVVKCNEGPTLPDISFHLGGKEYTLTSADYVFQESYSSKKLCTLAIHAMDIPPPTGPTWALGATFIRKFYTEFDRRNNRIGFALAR
Nature of the assay: Inhibition of human renal renin in vitro (angiotensin I formed measured by radioimmunoassay). Format: biochemical. To be noted: human renal renin free from acid proteolytic activity, renin substrate human angiotensinogen, 37 degrees C, pH 6.0; read-out: IC50 (molar concentration required to cause 50% inhibition). On the procedure:
The compounds of the invention are also useful for treating congestive heart failure in a mammal. […] At the end of the incubation, the amount of angiotensin I formed is measured by radioimmunoassay and the molar concentration required to cause 50% inhibition, expressed as the IC50, is calculated.
In the case of `CC(C)C[C@H](O)[C@H](O)[C@H](CC1CCCCC1)NC(=O)[C@H](Cc1cscn1)NC(=O)[C@@H](CC(=O)N1CCN(C2CC2)CC1)Cc1ccccc1` [Example 125, (2R)-2-Benzyl-3-[(4-cyclopropylpiperazin-1-yl)carbonyl]propionyl-L-(4-thiazolyl)Ala Amide of (2S,3R,4S)-2-Amino-1-cyclohexyl-3,4-dihydroxy-6-methylheptane], the IC50 is 0.55 nM.

For the molecule `CC(C)C[C@H](O)[C@H](O)[C@H](CC1CCCCC1)NC(=O)[C@H](Cn1cccn1)NC(=O)[C@@H](CC(=O)N(C)CCn1ccnc1)Cc1ccccc1` [Example 120, (2R)-2-Benzyl-3-[(2-imidazol-1-ylethyl)methylaminocarbonyl]propionyl-L-(1-pyrazolyl)Ala Amide of (2S,3R,4S)-2-Amino-1-cyclohexyl-3,4-dihydroxy-6-methylheptane], the IC50 was 0.22 nM.

For the molecule `CC(C)C[C@H](O)[C@H](O)[C@H](CC1CCCCC1)NC(=O)[C@H](Cc1cc[nH]n1)NC(=O)[C@@H](CC(=O)N(C)CCN1CCOCC1)Cc1ccccc1` [Example 155, (2R)-2-Benzyl-3-[(2-morpholin-4-ylethyl)methylcarbonyl]propionyl-L-(3-pyrazolyl)Ala Amide of (2S,3R,4S)-2-Amino-1-cyclohexyl-3,4-dihydroxy-6-methylheptane], the IC50 amounted to 0.32 nM.

`CC(C)C[C@H](O)[C@H](O)[C@H](CC1CCCCC1)NC(=O)C(Cn1cccn1)N(C)C(=O)[C@@H](CC(=O)N(C)CCc1ccccn1)Cc1ccccc1` (stereo partly drawn) [Example 134, (2R)-2-Benzyl-3-[(2-pyridin-2-ylethyl)methylaminocarbonyl]propionyl-(N-α-methyl)-(1-pyrazolyl) alanine Amide of (2S,3R,4S)-2-Amino-1-cyclohexyl-3,4-dihydroxy-6-methylheptane]: the IC50 worked out at 1.3 nM.

For the molecule `CC(C)C[C@H](O)[C@H](O)[C@H](CC1CCCCC1)NC(=O)[C@H](Cn1ccnc1)NC(=O)[C@@H](CC(=O)N(C)CCc1ccccn1)Cc1ccccc1` [Example 141, (2R)-2-Benzyl-3-[(2-pyridin-2-ylethyl)methylaminocarbonyl]propionyl-L-(1-imidazolyl)Ala Amide of (2S,3R,4S)-2-Amino-1-cyclohexyl-3,4-dihydroxy-6-methylheptane], the IC50 came out at 0.88 nM.

Consider `CC(C)C[C@H](O)[C@H](O)[C@H](CC1CCCCC1)NC(=O)[C@H](Cn1ccnc1)NC(=O)[C@@H](CC(=O)N(C)CCn1cccn1)Cc1ccccc1` [Example 107, (2R)-2-Benzyl-3-[(2-pyrazol-1-ylethyl)methylaminocarbonyl]propionyl-L-(1-imidazolyl)Ala Amide of (2S,3R,4S)-2-Amino-1-cyclohexyl-3,4-dihydroxy-6-methylheptane], for which the IC50 was determined as 0.89 nM.

As to `CC(C)C[C@H](O)[C@H](O)[C@H](CC1CCCCC1)NC(=O)[C@H](Cc1cscn1)NC(=O)[C@H](Cc1ccccc1)Cc1csc(N(C)C)n1` [Example 104, (2R)-2-Benzyl-3-(2-dimethylaminothiazol-4-yl)propionyl-L-(4-thiazolyl)Ala Amide of (2S,3R,4S)-2-Amino-1-cyclohexyl-3,4-dihydroxy-6-methylheptane], the IC50 came out at 0.43 nM.

Consider `CC(C)C[C@H](O)[C@H](O)[C@H](CC1CCCCC1)NC(=O)[C@H](Cc1cscn1)NC(=O)[C@@H](CC(=O)N(C)CCn1cccc1)Cc1ccccc1` [Example 153, (2R)-2-Benzyl-3-[(2-pyrrol-1-ylethyl)methylcarbonyl]propionyl-L-(4-thiazolyl)Ala Amide of (2S,3R,4S)-2-Amino-1-cyclohexyl-3,4-dihydroxy-6-methylheptane], for which the IC50 was 0.28 nM.

Take `CC(C)C[C@H](O)[C@H](O)[C@H](CC1CCCCC1)NC(=O)[C@H](Cc1cscn1)NC(=O)[C@@H](CC(=O)C[S+]([O-])C(C)(C)C)Cc1ccccc1` (stereo partly drawn) [Example 99, (2R)-2-Benzyl-5-tert-butylsulfinyl-4-oxopentanoyl-L-(4-thiazolyl)Ala Amide of (2S,3R,4S)-2-Amino-1-cyclohexyl-3,4-dihydroxy-6-methylheptane]: the IC50 stood at 0.91 nM.

Regarding `CC(C)C[C@H](O)[C@H](O)[C@H](CC1CCCCC1)NC(=O)[C@H](Cc1cscn1)NC(=O)[C@@H](CC(=O)N(C)CCc1c[nH]c2ccccc12)Cc1ccccc1` [Example 152, (2R)-2-Benzyl-3-[(2-indol-3-ylethyl)methylaminocarbonyl]propionyl-L-(4-thiazolyl)Ala Amide of (2S,3R,4S)-2-Amino-1-cyclohexyl-3,4-dihydroxy-6-methylheptane], the IC50 was 0.59 nM.

In the case of `COc1ccc(C[C@H](NC(=O)N(C)CCc2ccccn2)C(=O)N[C@@H](Cc2cscn2)C(=O)N[C@@H](CC2CCCCC2)[C@@H](O)[C@@H](O)CC(C)C)cc1` [Example 115, [2-Pyridin-2-ylethyl(methyl)amino]carbonyl(O-methyl)pyrosine-L-(4-thiazolyl)Ala Amide of (2S,3R,4S)-2-Amino-1-cyclohexyl-3,4-dihydroxy-6-methylheptane], the IC50 was found to be 0.78 nM.

`CC(C)C[C@H](O)[C@H](O)[C@H](CC1CCCCC1)NC(=O)[C@H](Cc1cscn1)NC(=O)[C@@H](CC(=O)CCCc1ccncc1)Cc1ccccc1` [Example 154, (2R)-2-Benzyl-3-[(2-pyridin-4-ylethyl)methylcarbonyl]propionyl-L-(4-thiazolyl)Ala Amide of (2S,3R,4S)-2-Amino-1-cyclohexyl-3,4-dihydroxy-6-methylheptane]: the IC50 is 0.21 nM.

Turning to `CC(C)C[C@H](O)[C@H](O)[C@H](CC1CCCCC1)NC(=O)[C@H](Cc1cscn1)NC(=O)[C@H](Cc1ccccc1)N1CCOCC1` [Example 113, (2S)-2-(4-Morpholinyl)-3-phenylpropionyl-L-(4-thiazolyl)Ala Amide of (2S,3R,4S)-2-Amino-1-cyclohexyl-3,4-dihydroxy-6-methylheptane], the IC50 stood at 0.15 nM.

`CC(C)C[C@H](O)[C@H](O)[C@H](CC1CCCCC1)NC(=O)[C@H](Cc1cccs1)NC(=O)[C@@H](CC(=O)N(C)CCn1cccn1)Cc1ccccc1` [Example 106, (2R)-2-Benzyl-3-[(2-pyrazol-1-ylethyl)methylaminocarbonyl]propionyl-L-(2-thienyl)Ala Amide of (2S,3R,4S)-2-Amino-1-cyclohexyl-3,4-dihydroxy-6-methylheptane]: the IC50 was 0.38 nM.

For `CC(C)C[C@H](NC(=O)[C@H](Cc1cscn1)NC(=O)[C@@H](CC(=O)N(C)CCn1cccn1)Cc1ccccc1)[C@@H](O)[C@@H](O)CC(C)C` [Example 111, (2R)-2-Benzyl-3-[(2-pyrazol-1-ylethyl)methylaminocarbonyl]propionyl-L-(4-Thiazolyl)Ala Amide of (4S,5R,6S)-6-Amino-4,5-dihydroxy-2,8-dimethylnonane], the IC50 was determined as 0.49 nM.

Turning to `CC(C)C[C@H](O)[C@H](O)[C@H](CC1CCCCC1)NC(=O)[C@H](Cc1cscn1)NC(=O)[C@@H](Cc1ccccc1)CS(=O)(=O)N(C)CCc1ccccn1` [Example 109, (2R)-2-Benzyl-3-[[2-pyridin-2-ylethyl(methyl)amino]sulfonyl]propionyl-L-(4-thiazolyl)Ala Amide of (2S,3R,4S)-2-Amino-1-cyclohexyl-3,4-dihydroxy-6-methylheptane], the IC50 was 0.25 nM.

On to `CC(C)C[C@H](O)[C@H](O)[C@H](CC1CCCCC1)NC(=O)[C@H](Cc1cscn1)NC(=O)[C@@H](CC(=O)N(C)c1ccncc1)Cc1ccccc1` [Example 124, (2R)-2-Benzyl-3-[(N-pyridin-4-yl)methylaminocarbonyl]propionyl-L-(4-thiazolyl)Ala Amide of (2S,3R,4S)-2-Amino-1-cyclohexyl-3,4-dihydroxy-6-methylheptane], for which the IC50 worked out at 0.34 nM.

For `CN=c1scc(C[C@@H](Cc2ccccc2)C(=O)N[C@@H](Cc2cscn2)C(=O)N[C@@H](CC2CCCCC2)[C@@H](O)[C@@H](O)CC(C)C)n1C` [Example 103, (2R)-2-Benzyl-3-(2-methylimino-3-methyl-2,3-dihydrothiazol-4-yl)propionyl-L-(4-thiazolyl) Ala Amide of (2S,3R,4S)-2-Amino-1-cyclohexyl-3,4-dihydroxy-6-methylheptane], the IC50 amounted to 0.43 nM.

On to `CCCC[C@H](NC(=O)C(Cc1ccccc1)CS(=O)(=O)C1CN(C)C1)C(=O)N[C@@H](CC1CCCCC1)[C@@H](O)[C@@H](O)CC(C)C` (mixture of isomers) [Example 110, (2RS)-2-Benzyl-3-(1-methylazetidin-3-ylsulfonyl)propionyl-Nle Amide of (2S,3R,4S)-2-Amino-1-cyclohexyl-3,4-dihydroxy-6-methylheptane], for which the IC50 was 2.3 nM.

As for `CC(C)C[C@H](O)[C@H](O)[C@H](CC1CCCCC1)NC(=O)[C@H](Cc1cscn1)NC(=O)[C@@H](Cc1ccccc1)CS(=O)(=O)C1CN(C)C1` [Example 108, (2R)-2-Benzyl-3-(1-methylazetidin-3-ylsulfonyl)propionyl-L-(4-thiazolyl)AlaAmide of (2S,3R,4S)-2-Amino-1-cyclohexyl-3,4-dihydroxy-6-methylheptane], the IC50 amounted to 0.44 nM.

`CC(C)C[C@H](O)[C@H](O)[C@H](CC1CCCCC1)NC(=O)[C@H](Cc1cscn1)NC(=O)[C@@H](CC(=O)N(C)CCN1CCOCC1)Cc1ccccc1` [Example 96, (2R)-2-Benzyl-3-[(2-morpholin-4-ylethyl)methylaminocarbonyl]propionyl-L-(4-thiazolyl)Ala Amide of (2S,3R,4S)-2-Amino-1-cyclohexyl-3,4-dihydroxy-6-methylheptane]: the IC50 came to 0.4 nM.
